Molecular target: T1, RORc ligand binding domain (Homo sapiens, UniProt P51449)
T1 sequence (P51449 269-508 limits assumed): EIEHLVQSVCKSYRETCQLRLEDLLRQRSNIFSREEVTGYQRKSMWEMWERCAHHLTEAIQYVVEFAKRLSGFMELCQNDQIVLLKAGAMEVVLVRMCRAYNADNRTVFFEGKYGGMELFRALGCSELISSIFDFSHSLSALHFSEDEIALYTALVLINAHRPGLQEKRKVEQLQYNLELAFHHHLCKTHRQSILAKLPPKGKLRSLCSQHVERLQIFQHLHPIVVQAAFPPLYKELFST
Assay: In vitro RORc ligand binding assay (25-[3H]hydroxycholesterol displacement)

| IC50 [nM] | Structure (SMILES) |
| --- | --- |
| 35 | Cc1ccn(C(=O)C2(c3cc(F)c(CN4[C@@H](C)CC[C@H](c5ccccc5)S4(=O)=O)cc3F)CCOCC2)n1 [Example 38, [4-[2,5-difluoro-4-[[(3S,6R)-3-methyl-1,1-dioxo-6-phenyl-thiazinan-2-yl]methyl]phenyl]tetrahydropyran-4-yl]-(3-methylpyrazol-1-yl)methanone] |
| 133 | C[C@H]1CC[C@H](c2ccccc2)S(=O)(=O)N1Cc1cc(F)c(C2(NC(=O)c3ncc[nH]3)COC2)cc1F (stereo in doubt) [Example 133, N-[3-[2,5-difluoro-4-[[(3S,6R)-3-methyl-1,1-dioxo-6-phenyl-thiazinan-2-yl]methyl]phenyl]oxetan-3-yl]-1H-imidazole-2-carboxamide] |
| 4.6 | COC1(OC)CC(c2nnc[nH]2)(c2cc(F)c(CN3[C@@H](C)CC[C@H](c4ccccc4)S3(=O)=O)cc2F)C1 [Example 112, (3S,6R)-2-[[4-[3,3-dimethoxy-1-(4H-1,2,4-triazol-3-yl)cyclobutyl]-2,5-difluoro-phenyl]methyl]-3-methyl-6-phenyl-thiazinane 1,1-dioxide] |
| 11.1 | C[C@H]1CC[C@H](c2ccccc2)S(=O)(=O)N1Cc1ccc(C2(CN3CCOCC3)CCOCC2)cc1F [Example 24] |
| 5.2 | C[C@H]1CC[C@H](c2ccccc2)S(=O)(=O)N1Cc1cc(F)c(C2(Nc3cnccn3)CCOCC2)cc1F [Example 118, N-[4-[2,5-difluoro-4-[[(3S,6R)-3-methyl-1,1-dioxo-6-phenyl-thiazinan-2-yl]methyl]phenyl]tetrahydropyran-4-yl]pyrazin-2-amine] |
| 21.6 | Cc1nnc(C2(c3cc(F)c(CN4[C@@H](C)CC[C@H](c5ccccc5)S4(=O)=O)cc3F)CCOCC2)[nH]1 [Example 48, (3S,6R)-2-[[2,5-difluoro-4-[4-(5-methyl-4H-1,2,4-triazol-3-yl)tetrahydropyran-4-yl]phenyl]methyl]-3-methyl-6-phenyl-thiazinane 1,1-dioxide] |
| 25.9 | C[C@H]1CC[C@H](c2ccccc2)S(=O)(=O)N1Cc1cc(F)c(C2(N3CC(=O)NC3=O)COC2)cc1F [Example 117, 1-[3-[2,5-difluoro-4-[[(3S,6R)-3-methyl-1,1-dioxo-6-phenyl-thiazinan-2-yl]methyl]phenyl]oxetan-3-yl]imidazolidine-2,4-dione] |
| 2.7 | C[C@H]1CC[C@H](c2ccccc2)S(=O)(=O)N1Cc1cc(F)c(C2(NC(=O)c3ccon3)CCOCC2)cc1F [Example 107, N-[4-[2,5-difluoro-4-[[(3S,6R)-3-methyl-1,1-dioxo-6-phenyl-thiazinan-2-yl]methyl]phenyl]tetrahydropyran-4-yl]isoxazole-3-carboxamide] |
| 23 | C[C@H]1CC[C@H](c2ccccc2)S(=O)(=O)N1Cc1cc(F)c([C@]2(c3nn(CC#N)c(=O)o3)C[C@](C)(O)C2)cc1F (racemic) [Example 174, 2-[5-[1-[2,5-difluoro-4-[[rac-(3S,6R)-3-methyl-1,1-dioxo-6-phenyl-thiazinan-2-yl]methyl]phenyl]-3-hydroxy-3-methyl-cyclobutyl]-2-oxo-1,3,4-oxadiazol-3-yl]acetonitrile] |
| 23.9 | C[C@H]1CC[C@H](c2ccccc2)S(=O)(=O)N1Cc1cc(F)c(C2(NCC3CCOC3)COC2)cc1F (stereo partly drawn) [Example 136, 3-[2,5-difluoro-4-[[(3S,6R)-3-methyl-1,1-dioxo-6-phenyl-thiazinan-2-yl]methyl]phenyl]-N-(tetrahydrofuran-3-ylmethyl)oxetan-3-amine] |
| 8 | C[C@H]1CC[C@H](c2ccccc2)S(=O)(=O)N1Cc1cc(F)c(C2(NCc3ncnn3C)COC2)cc1F [Example 87, 3-[2,5-difluoro-4-[[(3S,6R)-3-methyl-1,1-dioxo-6-phenyl-thiazinan-2-yl]methyl]phenyl]-N-[(2-methyl-1,2,4-triazol-3-yl)methyl]oxetan-3-amine] |
| 13.7 | CNc1nnc(C2(c3cc(F)c(CN4[C@@H](C)CC[C@H](c5ccccc5)S4(=O)=O)cc3F)CCOCC2)o1 [Example 90, 5-[4-[2,5-difluoro-4-[[(3S,6R)-3-methyl-1,1-dioxo-6-phenyl-thiazinan-2-yl]methyl]phenyl]tetrahydropyran-4-yl]-N-methyl-1,3,4-oxadiazol-2-amine] |
| 1.8 | C[C@H]1CC[C@H](c2ccccc2)S(=O)(=O)N1Cc1cc(F)c([C@]2(c3n[nH]c(=O)o3)C[C@H](O)C2)cc1F [Example 123, trans-5-[1-[2,5-difluoro-4-[[(3S,6R)-3-methyl-1,1-dioxo-6-phenyl-thiazinan-2-yl]methyl]phenyl]-3-hydroxy-cyclobutyl]-3H-1,3,4-oxadiazol-2-one] |
| 5.7 | COC1(OC)CC(c2n[nH]c(=O)o2)(c2cc(F)c(CN3[C@@H](C)CC[C@H](c4ccccc4)S3(=O)=O)cc2F)C1 [Example 120, 5-[1-[2,5-difluoro-4-[[(3S,6R)-3-methyl-1,1-dioxo-6-phenyl-thiazinan-2-yl]methyl]phenyl]-3,3-dimethoxy-cyclobutyl]-3H-1,3,4-oxadiazol-2-one] |
| 58.7 | C[C@H]1CC[C@H](c2ccccc2)S(=O)(=O)N1Cc1cc(F)c(C2(N3C[C@@H](CO)OC3=O)CCOCC2)cc1F [Example 99, (5S)-3-[4-[2,5-difluoro-4-[[(3S,6R)-3-methyl-1,1-dioxo-6-phenyl-thiazinan-2-yl]methyl]phenyl]tetrahydropyran-4-yl]-5-(hydroxymethyl)oxazolidin-2-one] |
| 3.6 | C[C@H]1CC[C@H](c2ccccc2)S(=O)(=O)N1Cc1ccc(C2(NCc3cocn3)CCOCC2)cc1F [Example 65, 4-[3-fluoro-4-[[(3S,6R)-3-methyl-1,1-dioxo-6-phenyl-thiazinan-2-yl]methyl]phenyl]-N-(oxazol-4-ylmethyl)tetrahydropyran-4-amine] |
| 1.8 | C[C@H]1CC[C@H](c2ccccc2)S(=O)(=O)N1Cc1cc(F)c(C2(c3n[nH]c(=O)o3)CC(=O)C2)cc1F [Example 119, 5-[1-[2,5-difluoro-4-[[(3S,6R)-3-methyl-1,1-dioxo-6-phenyl-thiazinan-2-yl]methyl]phenyl]-3-oxo-cyclobutyl]-3H-1,3,4-oxadiazol-2-one] |
| 7.3 | C[C@H]1CC[C@H](c2ccccc2)S(=O)(=O)N1Cc1cc(F)c([C@]2(Cn3cncn3)C[C@](C)(O)C2)cc1F (racemic) [Example 182, 3-[2,5-difluoro-4-[[rac-(3S,6R)-3-methyl-1,1-dioxo-6-phenyl-thiazinan-2-yl]methyl]phenyl]-1-methyl-3-(1,2,4-triazol-1-ylmethyl)cyclobutanol] |
| 465 | C[C@H]1CC[C@H](c2ccccc2)S(=O)(=O)N1Cc1ccc(C2(c3noc(CN(C)C)n3)CCOCC2)cc1F [Example 28, 1-[3-[4-[3-fluoro-4-[[(3S,6R)-3-methyl-1,1-dioxo-6-phenyl-thiazinan-2-yl]methyl]phenyl]tetrahydropyran-4-yl]-1,2,4-oxadiazol-5-yl]-N,N-dimethyl-methanamine] |
| 90.3 | Cc1nnc(COCC2(c3ccc(CN4[C@@H](C)CC[C@H](c5ccccc5)S4(=O)=O)c(F)c3)CCOCC2)o1 |
| 12.8 | C[C@H]1CC[C@H](c2ccccc2)S(=O)(=O)N1Cc1cc(F)c(C2(c3nn(C)c(=O)o3)CCOCC2)cc1F [Example 140, 5-[4-[2,5-difluoro-4-[[(3S,6R)-3-methyl-1,1-dioxo-6-phenyl-thiazinan-2-yl]methyl]phenyl]tetrahydropyran-4-yl]-3-methyl-1,3,4-oxadiazol-2-one] |
| 41.8 | Cc1nnc(NCC2(c3ccc(CN4[C@@H](C)CC[C@H](c5ccccc5)S4(=O)=O)c(F)c3)CCOCC2)o1 [Example 41, N-[[4-[3-fluoro-4-[[(3S,6R)-3-methyl-1,1-dioxo-6-phenyl-thiazinan-2-yl]methyl]phenyl]tetrahydropyran-4-yl]methyl]-5-methyl-1,3,4-oxadiazol-2-amine] |
| 4.6 | C[C@H]1CC[C@H](c2ccccc2)S(=O)(=O)N1Cc1cc(F)c([C@]2(c3nn(C)c(=O)o3)C[C@H](O)C2)cc1F [Example 147, trans 5-[1-[2,5-difluoro-4-[[(3S,6R)-3-methyl-1,1-dioxo-6-phenyl-thiazinan-2-yl]methyl]phenyl]-3-hydroxy-cyclobutyl]-3-methyl-1,3,4-oxadiazol-2-one] |
| 23.4 | C[C@H]1CC[C@H](c2ccccc2)S(=O)(=O)N1Cc1cc(F)c(C2(C(=O)NCc3ccnn3C)CCOCC2)cc1F [Example 33, 4-[2,5-difluoro-4-[[(3S,6R)-3-methyl-1,1-dioxo-6-phenyl-thiazinan-2-yl]methyl]phenyl]-N-[(2-methylpyrazol-3-yl)methyl]tetrahydropyran-4-carboxamide] |
| 7.1 | C[C@H]1CC[C@H](c2ccccc2)S(=O)(=O)N1Cc1cc(F)c(C2(NCc3cnccn3)COC2)cc1F [Example 89, 3-[2,5-difluoro-4-[[(3S,6R)-3-methyl-1,1-dioxo-6-phenyl-thiazinan-2-yl]methyl]phenyl]-N-(pyrazin-2-ylmethyl)oxetan-3-amine] |
| 20.6 | Cc1cc(CNC2(c3cc(F)c(CN4[C@@H](C)CC[C@H](c5ccccc5)S4(=O)=O)cc3F)COC2)no1 [Example 95, 3-[2,5-difluoro-4-[[(3S,6R)-3-methyl-1,1-dioxo-6-phenyl-thiazinan-2-yl]methyl]phenyl]-N-[(5-methylisoxazol-3-yl)methyl]oxetan-3-amine] |
| 6.9 | C[C@H]1CC[C@H](c2ccccc2)S(=O)(=O)N1Cc1cc(F)c([C@]2(c3nn(C)c(=O)o3)C[C@](C)(O)C2)cc1F [Example 151, trans 5-[1-[2,5-difluoro-4-[[(3S,6R)-3-methyl-1,1-dioxo-6-phenyl-thiazinan-2-yl]methyl]phenyl]-3-hydroxy-3-methyl-cyclobutyl]-3-methyl-1,3,4-oxadiazol-2-one] |

From US10259808B2 (Genentech, Inc., priority 2015, dated 2019)
